# Reference: PubChem BioAssay AID602156 (GNF / Scripps Winzeler lab, 2011)
# Activity calls are given as the source filed them. No rule for the calls is given here.
# Test system: P. yoelii liver stage in HepG2-A16-CD81EGFP, imaging
# Assay: exo-erythrocytic parasite development inhibition – imaging, Malaria Box, P. yoelii, HepG2-A16-CD81EGFP, dose response (AID 602156);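 also: infected cells exposed to compound for 48 hours before fixation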
row,Structure (SMILES),IC50
1,O=C(Nc1ccc(Oc2cccc(Oc3ccc(NC(=O)c4ccc(Br)o4)cc3)c2)cc1)c1ccc(Br)o1,433 nM
2,CSc1nnc(-c2cccc([N+](=O)[O-])c2)n1Cc1ccccc1,2510 nM
3,COc1ccc(C(c2ccc(N(C)C)cc2)c2ccc(N(C)C)cc2)cc1,> 10000 nM (inactive)
4,COc1ccc(C2Sc3ccccc3NC3=C2C(=O)c2ccccc23)cc1 (stereo not drawn),706 nM
5,O=C1N(Cc2cc3ccccc3s2)CC2CN(Cc3ccsc3)CCN12 (stereo not drawn),25.5 nM
6,Clc1ccccc1-c1nc([P+](c2ccccc2)(c2ccccc2)c2ccccc2)c(N2CCOCC2)o1,95.6 nM
7,CC(=O)Nc1ccc(-c2nc(-c3ccc(Oc4ccc(-c5[nH]c(-c6ccc(NC(C)=O)cc6)nc5-c5ccccc5)cc4)cc3)c(-c3ccccc3)[nH]2)cc1,> 3730 nM (inactive)
8,O=C(c1cccc(Cl)c1)N1CCN(c2ccc([N+](=O)[O-])c(NC3CC3)c2)CC1,3200 nM
9,CC[n+]1c(C=C2C=Cc3cc(C)ccc3N2C)sc(C)c1C,11.3 nM
10,CCN(CC)CCCNc1nc2cc(OC)c(OC)cc2c2nc(-c3ccccc3)nn12,327 nM
11,c1ccc(Nc2ccnc(Nc3ccccc3)n2)cc1,1480 nM
12,Cc1ccc2[nH]c(C)c(Br)c(=O)c2c1,252 nM
13,O=C(c1ccc([N+](=O)[O-])cc1)c1ccc(Cl)c(Cl)c1,1640 nM
14,S=C(NN=Cc1ccccn1)NC1CC2CC1C1C=CCC21 (stereo not drawn),25.6 nM
15,CCCCc1c(C)[nH]c2ccc(Br)cc2c1=O,64.7 nM
16,COc1ccc2nc(C)cc(Nc3ccc(Oc4ccc(Cl)c5ccccc45)c(Cl)c3)c2c1,267 nM
17,Cc1[nH]c2ccccc2c(=O)c1Br,214 nM
18,CCCCNC(=O)C(CC)Sc1nnc(-c2ccc(C)cc2)c(-c2ccc(C)cc2)n1 (stereo not drawn),291 nM
19,CCN1CCN(c2c(C(=O)c3ccccc3)cnc3cc(OC)c(OC)cc23)CC1,367 nM
20,CCCN(C(=O)Nc1c(C(C)C)cccc1C(C)C)C(CC)c1nc2ccccc2c(=O)n1-c1cccc(C)c1 (stereo not drawn),6300 nM
21,CN(C)c1ccc(-c2n(C)c3ccccc3[n+]2C)cc1,175 nM
22,CC(=O)N(C)C1=C(N2CCCC2)C(=O)c2ccccc2C1=O,4950 nM
23,CCN1CCN(c2cc(C)c3cc(NC(=O)c4cc(OC)cc(OC)c4)ccc3n2)CC1,3740 nM
24,Fc1ccc(Nc2nc(NCc3ccccc3)c3ccccc3n2)cc1,3790 nM
25,COc1cccc(Nc2nc(NCCO)c3ccccc3n2)c1,62.3 nM
26,COc1ccc(C2CC(=O)C3=C(C2)NC(C)=C(C(=O)OC2CCCC2)C3c2cccc(C)c2)cc1OC (stereo not drawn),779 nM

# Now from value to compound:
row,IC50,Structure (SMILES)
1,4.18 nM,CCCc1ccc(C(=O)NC(=O)c2ccccc2O)cc1
2,857 nM,COc1cccc(CNC(=O)C2CNCC2c2ccc(C(F)(F)F)cc2)c1 (stereo not drawn)
3,129 nM,CN(C)c1oc(-c2ccc(Cl)cc2Cl)nc1[P+](c1ccccc1)(c1ccccc1)c1ccccc1
4,43.8 nM,Fc1ccc2nc(Nc3nc(-c4ccccn4)cs3)sc2c1
5,1790 nM,CCCCOc1ccc(N(C(C)=O)C2=C(N3CCOCC3)C(=O)c3ccccc3C2=O)cc1
6,57.3 nM,CC(=O)N(C1=C(N(C)C)C(=O)c2ccccc2C1=O)c1ccc(F)cc1
7,727 nM,O=c1c2c([nH]c3ccccc13)CCCCCC2
8,6660 nM,COc1ccc2c(C)nc(Nc3nc(C)cc(-c4ccccc4)n3)nc2c1
9,410 nM,CCOC(=O)c1cnc2ccc(OC)cc2c1Cl
10,82.1 nM,CCCCSc1oc(C)nc1[P+](c1ccccc1)(c1ccccc1)c1ccccc1
11,3450 nM,COc1ccc(-c2c(C(F)(F)F)nn(C)c2NC(=O)Nc2ccc(F)cc2F)cc1
12,1040 nM,Oc1cccc(Nc2nc(NCC3CCCO3)c3ccccc3n2)c1 (stereo not drawn)
